# Laboratory results as given in patent US20160206633A1, “dhS1P AND USE OF SAME AS AN ANTICANCER THERAPEUTIC AND IMMUNOMODULATOR” (Penn State Research Foundation, Inc., priority 2013, published 2016).
# Key:
# [1] = test system: splenic IMCs (Gr-1+CD11b+, MDSCs) from MDA-MB-231 tumor-bearing athymic nude mice; test: Isolated IMCs/MDSCs exposed in culture to dhS1P or S1P, multicolor flow cytometry; format: cell-based; settings: 5 μM, 24-hour culture
# Method: (A) Splenic IMCs (Gr-1+CD11b+, also defined as MDSCs: myeloid-derived suppressor cells) were isolated from MDA-MB-231 tumor-bearing athymic nude mice and exposed to BSA, S1P (5 μM), or dhS1P (5 μM). Following 24-hour culture incubation, cells were labeled with specific antibodies and analyzed by multicolor flow cytometry (red: IMCs; blue: possible B-cells). (B) Splenic IMCs were isolated from MDA-MB-231 tumor-bearing athymic nude mice and cultured (5×10^4 cells/mL) in GEMM-supportive semi-solid media with BSA, S1P (5 μM), or dhS1P (5 μM). GEMM colonies (multipotent myeloid progenitor cells) were visualized and counted after 3 weeks of culture. ANOVA, *p<0.01 compared to no treatment or BSA-treatment, ***p<0.001 compared to S1P-treatment, n≧3. (C) Splenic hematopoietic progenitors (Lineage-Sca-1+CD117+) were isolated from MDA-MB-231 tumor-bearing athymic nude mice and exposed to BSA, S1P (5 μM), or dhS1P (5 μM). Following 24-hour culture incubation, cells were labeled with specific antibodies and analyzed by multicolor flow cytometry.
# The effect of dhS1P was further investigated at the level of MDSC-like cells, which were reduced as a function of treatment. The effects of dhS1P were directly compared with those of S1P as to delineate a difference in their physiological roles. Tumor-expanded IMCs/MDSCs were isolated and exposed in culture to either dhS1P or S1P. […]
# [2] = test system: isolated MDSC-like cells; test: Whole-genome RNA microarray of isolated MDSC-like cells after dhS1P; format: cell-based, athymic nude mice; settings: 24 hours dhS1P vs vehicle (BSA); fold-change cut-off 1.2, p-value cut-off 0.05
# Method: To more closely evaluate the genetic consequences of the dhS1P-induced decrease in isolated MDSC-like cells and the increase in cells bearing the surface markers of B-cells, a RNA microarray analysis was conducted. MDSC-like cells were isolated from MDA-MB-231 tumor-bearing athymic nude mice, exposed for 24 hours to dhS1P or vehicle (BSA), followed by RNA extraction, and a whole-genome microarray was performed. As compared to vehicle-treated MDSC-like cells, dhS1P treatment of isolated MDSC-like cells altered the expression of a variety of genes.
# Isolated MDSC-like cells were cultured for 24 hours in media containing BSA, or dhS1P ([…]), before collection and washing via centrifugation. […]
# cDNA was purified according to standard procedures. cDNA was in vitro transcribed to synthesize cRNA using a MEGAscript kit (Ambion, Austin, Tex.). Samples were incubated with T7 10× reaction buffer, T7 Enzyme mix and Biotin-NTP mix at 37° C. for 14 hours. cRNA was purified according to instructions, and the yield was measured using a NanoDrop ND-1000 (NanoDrop Products, Wilmington, Del.). […] BeadChips were dried by centrifugation at 275×g for 4 minutes and subsequently scanned using a BeadArray Reader. […]
compound,measurement,setting,value
"CCCCCCCCCCCCCCC[C@@H](O)[C@@H](N)COP(=O)(O)O [dhS1P, dihydrosphingosine-1-phosphate]",Population of cells displaying CD19 and CD45R B220 in isolated IMC culture,[1],promoted the expansion
same,Cells bearing the surface characteristics of IMCs/MDSCs (Gr-1+CD11b+),[1]; normal culture conditions,completely ablated
same,Number of significantly regulated genes,[2],319
